# According to ChEMBL document CHEMBL6127132, “Design, Synthesis, and Biological Evaluation of Novel Diaminopyrimidine Macrocycles as Fourth Generation Reversible EGFR Inhibitors That Overcome Clinical Resistance to Osimertinib Mediated by C797S Mutation” (J Med Chem, 2024):
# How the values were obtained:
# [1] = test system: A-431; test: cells; details: Homo sapiens, A-431, 72 h
# [2] = test system: BaF3; test: cells; details: Mus musculus, BaF3, 72 h
# [3] = test system: BaF3; test: cells; details: Mus musculus, BaF3, 72 h; remark: listed apart in the source
# [4] = cells; details: Homo sapiens, PC9-OR, 72 h
# [5] = Antiproliferative activity against mouse BaF3 cells assessed as inhibition of cell proliferation incubated for 72 hrs by CCK-8 assay; type: toxicity, cell-based
# [6] = Induction of apoptosis in mouse BaF3 cells harboring EGFR 19del/T790M/C797S mutant assessed as early apoptotic cells at 1000 nM incubated for 48 hrs by Annexin V-FITC/PI staining based flow cytometric analysis (reference value: 0.36 %); type: functional
# [7] = Induction of apoptosis in mouse BaF3 cells harboring EGFR 19del/T790M/C797S mutant assessed as late apoptotic cells at 100 nM incubated for 48 hrs by Annexin V-FITC/PI staining based flow cytometric analysis (reference value: 1.47 %); type: functional
# [8] = Induction of apoptosis in mouse BaF3 cells harboring EGFR 19del/T790M/C797S mutant assessed as early apoptotic cells at 30 nM incubated for 48 hrs by Annexin V-FITC/PI staining based flow cytometric analysis (reference value: 0.36 %); type: functional
# [9] = Induction of apoptosis in mouse BaF3 cells harboring EGFR 19del/T790M/C797S mutant assessed as late apoptotic cells at 30 nM incubated for 48 hrs by Annexin V-FITC/PI staining based flow cytometric analysis (reference value: 1.47 %); type: functional
# [10] = Induction of apoptosis in mouse BaF3 cells harboring EGFR 19del/T790M/C797S mutant assessed as late apoptotic cells at 1000 nM incubated for 48 hrs by Annexin V-FITC/PI staining based flow cytometric analysis (reference value: 1.47 %); type: functional
# [11] = Induction of apoptosis in mouse BaF3 cells harboring EGFR 19del/T790M/C797S mutant assessed as late apoptotic cells at 300 nM incubated for 48 hrs by Annexin V-FITC/PI staining based flow cytometric analysis (reference value: 1.47 %); type: functional
# [12] = test system: BaF3; test: Antitumor activity against mouse BaF3 cells harboring 19del/T790M/C797S mutant implanted in female BALB/c nu/nu mouse assessed as tumor growth inhibition at 20 mg/kg, po administered once daily for 9 days relative to control; type: functional; details: BaF3, 216 h, time 9 day, read-out: TGI
# [13] = Induction of apoptosis in mouse BaF3 cells harboring EGFR 19del/T790M/C797S mutant assessed as early apoptotic cells at 100 nM incubated for 48 hrs by Annexin V-FITC/PI staining based flow cytometric analysis (reference value: 0.36 %); type: functional
# [14] = Induction of apoptosis in mouse BaF3 cells harboring EGFR 19del/T790M/C797S mutant assessed as early apoptotic cells at 300 nM incubated for 48 hrs by Annexin V-FITC/PI staining based flow cytometric analysis (reference value: 0.36 %); type: functional
# [15] = biological target: Epidermal growth factor receptor (Homo sapiens, UniProt P00533); test: Inhibition of recombinant wildtype N-terminal GST-tagged human EGFR kinase domain (696 to end residues) extracted from baculovirus infect Sf21 insect cells incubated for 1 hrs by spectrophotometric analysis
# Epidermal growth factor receptor (Homo sapiens, UniProt P00533), sequence (P00533 whole entry, the tested form may be a part): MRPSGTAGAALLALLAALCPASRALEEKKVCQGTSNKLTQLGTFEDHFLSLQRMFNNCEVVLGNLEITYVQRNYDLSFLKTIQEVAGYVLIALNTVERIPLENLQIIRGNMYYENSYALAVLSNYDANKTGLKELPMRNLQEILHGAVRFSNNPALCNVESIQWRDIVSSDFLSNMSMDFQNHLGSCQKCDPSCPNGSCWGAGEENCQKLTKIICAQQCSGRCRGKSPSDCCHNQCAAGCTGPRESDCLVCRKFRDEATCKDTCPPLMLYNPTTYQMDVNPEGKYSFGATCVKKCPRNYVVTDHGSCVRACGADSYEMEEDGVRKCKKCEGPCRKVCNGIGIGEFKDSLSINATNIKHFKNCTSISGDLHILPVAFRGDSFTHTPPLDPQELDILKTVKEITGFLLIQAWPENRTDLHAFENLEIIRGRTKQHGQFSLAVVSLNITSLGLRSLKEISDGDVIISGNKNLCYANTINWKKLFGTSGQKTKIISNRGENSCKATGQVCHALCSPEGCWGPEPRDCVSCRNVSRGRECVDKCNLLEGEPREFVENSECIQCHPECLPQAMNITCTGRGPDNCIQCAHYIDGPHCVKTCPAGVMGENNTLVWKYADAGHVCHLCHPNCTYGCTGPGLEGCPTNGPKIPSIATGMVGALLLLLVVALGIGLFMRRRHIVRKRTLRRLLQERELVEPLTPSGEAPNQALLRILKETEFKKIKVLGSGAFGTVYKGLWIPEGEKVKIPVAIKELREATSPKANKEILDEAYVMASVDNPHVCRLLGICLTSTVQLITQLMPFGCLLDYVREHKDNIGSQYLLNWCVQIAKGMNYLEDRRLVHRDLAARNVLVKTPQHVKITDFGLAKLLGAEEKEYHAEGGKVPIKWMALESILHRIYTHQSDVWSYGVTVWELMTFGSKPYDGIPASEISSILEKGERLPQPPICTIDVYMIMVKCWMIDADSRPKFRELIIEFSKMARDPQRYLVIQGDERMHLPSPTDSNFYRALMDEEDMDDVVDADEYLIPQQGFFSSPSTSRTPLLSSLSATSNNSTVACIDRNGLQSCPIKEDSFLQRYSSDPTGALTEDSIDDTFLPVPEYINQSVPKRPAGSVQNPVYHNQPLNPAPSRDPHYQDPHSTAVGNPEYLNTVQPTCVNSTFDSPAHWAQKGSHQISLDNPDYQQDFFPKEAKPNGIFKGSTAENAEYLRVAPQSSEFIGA
# [16] = biological target: Epidermal growth factor receptor (Homo sapiens, UniProt P00533, L858R/T790M); test: Inhibition of recombinant N-terminal GST-tagged human EGFR T790M/L858R mutant (696 to end residues) extracted from baculovirus infect Sf21 insect cells incubated for 1 hrs by spectrophotometric analysis
# Epidermal growth factor receptor (Homo sapiens, UniProt P00533, L858R/T790M), sequence (P00533 25-1210 T790M/L858R limits assumed): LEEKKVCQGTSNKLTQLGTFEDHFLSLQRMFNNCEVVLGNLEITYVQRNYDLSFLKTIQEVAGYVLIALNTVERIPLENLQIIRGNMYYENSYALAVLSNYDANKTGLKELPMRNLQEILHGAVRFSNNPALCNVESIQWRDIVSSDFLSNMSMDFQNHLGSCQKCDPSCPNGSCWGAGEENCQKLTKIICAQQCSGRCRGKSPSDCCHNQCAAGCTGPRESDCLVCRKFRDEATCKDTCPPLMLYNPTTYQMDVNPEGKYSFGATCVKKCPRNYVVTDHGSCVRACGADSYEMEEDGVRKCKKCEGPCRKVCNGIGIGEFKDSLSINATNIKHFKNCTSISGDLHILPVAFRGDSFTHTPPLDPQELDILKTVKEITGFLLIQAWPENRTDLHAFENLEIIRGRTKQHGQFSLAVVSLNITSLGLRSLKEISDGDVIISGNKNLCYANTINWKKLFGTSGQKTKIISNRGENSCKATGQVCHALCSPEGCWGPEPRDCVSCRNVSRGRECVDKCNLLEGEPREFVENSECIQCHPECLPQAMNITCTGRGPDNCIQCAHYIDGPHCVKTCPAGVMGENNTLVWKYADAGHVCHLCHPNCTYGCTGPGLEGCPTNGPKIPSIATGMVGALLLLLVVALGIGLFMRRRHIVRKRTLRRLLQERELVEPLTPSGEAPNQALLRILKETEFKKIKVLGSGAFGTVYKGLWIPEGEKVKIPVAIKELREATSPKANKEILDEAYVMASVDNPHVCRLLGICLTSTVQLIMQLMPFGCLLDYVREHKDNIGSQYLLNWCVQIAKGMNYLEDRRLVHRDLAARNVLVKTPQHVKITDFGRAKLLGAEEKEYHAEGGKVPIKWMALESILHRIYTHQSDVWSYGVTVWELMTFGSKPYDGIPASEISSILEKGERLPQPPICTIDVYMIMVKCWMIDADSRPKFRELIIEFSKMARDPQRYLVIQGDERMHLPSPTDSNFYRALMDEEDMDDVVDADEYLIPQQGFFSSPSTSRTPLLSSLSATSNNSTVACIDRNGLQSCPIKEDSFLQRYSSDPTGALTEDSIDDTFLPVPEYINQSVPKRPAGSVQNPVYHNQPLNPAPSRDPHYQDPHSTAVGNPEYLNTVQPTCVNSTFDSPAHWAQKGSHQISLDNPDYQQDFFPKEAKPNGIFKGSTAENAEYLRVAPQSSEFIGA
# [17] = biological target: Epidermal growth factor receptor (Homo sapiens, UniProt P00533, C797S/EX19DEL/T790M); test: Inhibition of recombinant N-terminal GST-tagged human EGFR 19del/T790M/C797S mutant (668 to end residues) extracted from Sf9 insect cells incubated for 1 hrs by spectrophotometric analysis; type: cell-free
# Epidermal growth factor receptor (Homo sapiens, UniProt P00533, C797S/EX19DEL/T790M), sequence (P00533 whole entry, looked up, stated change not applied, the tested form may be a part): as the sequence (P00533 whole entry, the tested form may be a part) above
# [18] = biological target: Epidermal growth factor receptor (Homo sapiens, UniProt P00533, C797S/L858R/T790M); test: Inhibition of recombinant C-terminal His-tagged/N-terminal GST-tagged human EGFR T790M/C797S/L858R mutant (668 to 1210 residues) extracted from baculovirus infected Sf9 insect cells incubated for 1 hrs by spectrophotometric analysis
# Epidermal growth factor receptor (Homo sapiens, UniProt P00533, C797S/L858R/T790M), sequence (P00533 25-1210 T790M/C797S/L858R limits assumed): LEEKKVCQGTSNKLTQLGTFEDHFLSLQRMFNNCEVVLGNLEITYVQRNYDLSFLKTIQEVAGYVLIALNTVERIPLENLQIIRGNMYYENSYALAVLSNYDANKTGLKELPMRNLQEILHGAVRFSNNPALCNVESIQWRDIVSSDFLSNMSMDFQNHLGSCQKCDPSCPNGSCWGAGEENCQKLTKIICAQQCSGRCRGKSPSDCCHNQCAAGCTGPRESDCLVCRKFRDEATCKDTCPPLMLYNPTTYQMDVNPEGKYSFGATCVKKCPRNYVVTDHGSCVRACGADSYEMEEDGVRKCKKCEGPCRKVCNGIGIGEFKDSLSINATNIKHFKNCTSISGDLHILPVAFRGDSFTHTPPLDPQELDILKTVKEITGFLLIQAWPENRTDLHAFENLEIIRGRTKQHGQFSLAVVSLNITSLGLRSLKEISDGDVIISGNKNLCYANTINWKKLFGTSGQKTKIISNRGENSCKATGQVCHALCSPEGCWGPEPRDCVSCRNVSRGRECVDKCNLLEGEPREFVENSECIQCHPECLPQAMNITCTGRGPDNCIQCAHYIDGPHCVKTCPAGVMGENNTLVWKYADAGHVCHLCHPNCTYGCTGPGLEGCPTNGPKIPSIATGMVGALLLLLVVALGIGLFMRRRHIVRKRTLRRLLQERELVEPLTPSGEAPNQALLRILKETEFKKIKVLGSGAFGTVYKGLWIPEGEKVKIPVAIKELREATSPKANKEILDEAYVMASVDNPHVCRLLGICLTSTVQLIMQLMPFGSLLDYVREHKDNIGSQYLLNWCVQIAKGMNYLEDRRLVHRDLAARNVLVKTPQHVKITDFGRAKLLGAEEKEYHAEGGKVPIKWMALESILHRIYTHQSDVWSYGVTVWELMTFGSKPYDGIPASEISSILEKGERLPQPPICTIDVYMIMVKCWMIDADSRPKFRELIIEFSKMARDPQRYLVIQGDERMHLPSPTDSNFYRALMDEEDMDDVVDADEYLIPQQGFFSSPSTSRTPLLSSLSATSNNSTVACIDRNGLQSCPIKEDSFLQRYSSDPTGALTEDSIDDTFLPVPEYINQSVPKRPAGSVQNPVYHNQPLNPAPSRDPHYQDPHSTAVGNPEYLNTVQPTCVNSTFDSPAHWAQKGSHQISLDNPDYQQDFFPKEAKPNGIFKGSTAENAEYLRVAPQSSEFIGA
# [19] = Induction of apoptosis in mouse BaF3 cells harboring EGFR 19del/T790M/C797S mutant assessed as late apoptotic cells at 300 nM incubated for 48 hrs by Annexin V-FITC/PI staining based flow cytometric analysis (reference value: 1.75 %); type: functional
# [20] = Induction of apoptosis in mouse BaF3 cells harboring EGFR 19del/T790M/C797S mutant assessed as early apoptotic cells at 30 nM incubated for 48 hrs by Annexin V-FITC/PI staining based flow cytometric analysis (reference value: 2.48 %); type: functional
# [21] = Induction of apoptosis in mouse BaF3 cells harboring EGFR 19del/T790M/C797S mutant assessed as early apoptotic cells at 1000 nM incubated for 48 hrs by Annexin V-FITC/PI staining based flow cytometric analysis (reference value: 2.48 %); type: functional
# [22] = Induction of apoptosis in mouse BaF3 cells harboring EGFR 19del/T790M/C797S mutant assessed as late apoptotic cells at 100 nM incubated for 48 hrs by Annexin V-FITC/PI staining based flow cytometric analysis (reference value: 1.75 %); type: functional
# [23] = Induction of apoptosis in mouse BaF3 cells harboring EGFR 19del/T790M/C797S mutant assessed as late apoptotic cells at 1000 nM incubated for 48 hrs by Annexin V-FITC/PI staining based flow cytometric analysis (reference value: 1.75 %); type: functional
# [24] = Induction of apoptosis in mouse BaF3 cells harboring EGFR 19del/T790M/C797S mutant assessed as early apoptotic cells at 300 nM incubated for 48 hrs by Annexin V-FITC/PI staining based flow cytometric analysis (reference value: 2.48 %); type: functional
# [25] = Induction of apoptosis in mouse BaF3 cells harboring EGFR 19del/T790M/C797S mutant assessed as late apoptotic cells at 30 nM incubated for 48 hrs by Annexin V-FITC/PI staining based flow cytometric analysis (reference value: 1.75 %); type: functional
# [26] = Induction of apoptosis in mouse BaF3 cells harboring EGFR 19del/T790M/C797S mutant assessed as early apoptotic cells at 100 nM incubated for 48 hrs by Annexin V-FITC/PI staining based flow cytometric analysis (reference value: 2.48 %); type: functional
SMILES,IC50 [1],IC50 [2],IC50 [3],IC50 [4],IC50 at 72 h [5],IC50 [15],IC50 [16],IC50 [17],further results
C=CC(=O)Nc1cc(Nc2nccc(-c3cn(C)c4ccccc34)n2)c(OC)cc1N(C)CCN(C)C [OSIMERTINIB],[…],1.76 µM,1.55 µM,2.6 µM,,,,,
COc1cc(N(C)CCN(C)C)c2cc1Nc1nccc(n1)-c1cnn(c1)CCCCC(=O)N2,,,,,,> 1 µM,> 1 µM,> 1 µM,
COc1cc(N(C)CCN(C)C)c2cc1Nc1nccc(n1)-c1cc(C#N)n(c1)CCCCC(=O)N2,,,,,,> 1 µM,> 1 µM,> 1 µM,
COc1cc(N(C)CCN(C)C)c2cc1Nc1ncc(C)c(n1)Nc1ccc(cc1P(C)(C)=O)OCCCn1cc-2cn1,> 10 µM,0.394 µM,0.174 µM,0.104 µM,> 10 µM,,,,
COc1cc(N(C)CCN(C)C)c2cc1Nc1ncc(C(=O)OC(C)C)c(n1)Nc1ccc(cc1P(C)(C)=O)OCCCCC(=O)N2,,,,,,> 1 µM,> 1 µM,> 1 µM,IC50 [18]: > 1 µM
COc1cc(N(C)CCN(C)C)c2cc1Nc1nccc(n1)-c1cn(c3cc(P(C)(C)=O)ccc13)CCCCC(=O)N2,,,,,,> 1 µM,> 1 µM,> 1 µM,

# Further lines, with some results ahead:
IC50 [1],IC50 [2],IC50 [3],IC50 [4],SMILES,IC50 at 72 h [5],IC50 [15],IC50 [16],IC50 [17],further results
0.161 µM,0.146 µM,< 0.016 µM,0.062 µM,COc1cc(N2CCN(C)CC2)c2cc1Nc1ncc(C)c(n1)Nc1ccc(cc1P(C)(C)=O)OCCCn1cc-2cn1,2.25 µM,,,,
0.158 µM,0.313 µM,0.041 µM,0.038 µM,COc1cc(N2CCC(N3CCN(C)CC3)CC2)c2cc1Nc1ncc(C)c(n1)Nc1ccc(cc1P(C)(C)=O)OCCCn1cc-2cn1,2.77 µM,,,,
0.302 µM,0.176 µM,0.1 µM,0.094 µM,COc1cc(N2CCC(N3CCN(C)CC3)CC2)c(C)cc1Nc1ncc(Br)c(Nc2ccc3nccnc3c2P(C)(C)=O)n1,2.04 µM,,,,Activity [6]: 64.67%; Activity [7]: 3.84%; Activity [8]: 2.39%; Activity [9]: 1.98%; Activity [10]: 22.63%; Activity [11]: 18.4%; inhibition in vivo at 20 mg/kg [12]: 78.4%; Activity [13]: 6.67%; Activity [14]: 50.63%
4.37 µM,> 10 µM,> 10 µM,2.33 µM,COc1cc(N(C)CCN(C)C)c2cc1Nc1ncc(C)c(n1)Nc1ccc(cc1P(C)(C)=O)OCCCCC(=O)N2,> 10 µM,,,,
0.436 µM,0.392 µM,0.382 µM,0.314 µM,COc1cc(N2CCC(N3CCN(C)CC3)CC2)ccc1Nc1ncc(Cl)c(Nc2ccccc2P(C)(C)=O)n1 [BRIGATINIB],2.38 µM,,,,Activity [19]: 1.86%; Activity [20]: 2.4%; Activity [21]: 32.44%; Activity [22]: 1.3%; Activity [23]: 6.87%; Activity [24]: 4.25%; Activity [25]: 1.21%; Activity [26]: 3.51%
> 10 µM,2.09 µM,1.73 µM,1 µM,COc1cc(N(C)CCN(C)C)c2cc1Nc1ncc(C)c(n1)Nc1ccc(cc1P(C)(C)=O)OCCCCCC2,> 10 µM,,,,
